pIC50: −log10 of the molar value. Structures can show the parent of a compound that is named as a salt. Where two headings read alike, the source gives them in different places.
Test system: Phosphorylated Ribosomal Protein S6 (RPS6) in THP-1 cells
Assay: THP-1 RPS6 ELISA Assay
Type: cell-based, Human
Conditions: Homo sapiens; for pIC50: THP-1 cells, 10 nM MCP-1, read-out: PI3Kγ_THP1_RPS6_ELISA IC50; for IC50: THP-1, read-out: PI3Kγ_THP1_RPS6_ELISA IC50 (nM)
Method: To measure the Phosphorylated Ribosomal Protein S6 (RPS6) in cell lysates, THP-1 cells (Human Acute Monocytic Leukemia) are purchased from ATCC (Manassas, Va.) and maintained in RPMI with 10% FBS (Gibco/Life Technologies, Carlsbad, Calif.). For the assay, THP-1 cells are serum starved overnight in RPMI, then plated in RPMI (2×10^5 cells/well in 90 μL) into 96-well flat-bottom tissue culture treated plates (Corning, Corning, N.Y.), in the presence or absence of a concentration range of test compounds. Covered plates are incubated for 2 hours at 37° C., 5% CO2 then treated with or without 10 nM MCP-1(MYBioSource, San Diego, Calif.) for 15 minutes at 37° C., 5% CO2. Plates are centrifuged at 1600 RPM and supernatants are removed. Cells are lysed in Lysis Buffer (Cell Signaling, Danvers, Mass.) with Protease Inhibitor (Calbiochem/EMD, Germany), PMSF (Sigma, St Louis Mo.), HALTS (Thermo Fisher, Rockford, Ill.) for 30 min on wet ice. Cell lysates are frozen at −80 OC before testing. The lysates are tested in the Human/Mouse/Rat Phospho-RPS6 ELISA (R&D Systems, Inc. Minn, Minn.). The plate is measured using a microplate reader (SpectraMax M5—Molecular Devices, LLC Sunnyvale, Calif.) set to 450 nm with a wavelength correction of 540. IC50 determination is performed by fitting the curve of inhibitor percent inhibition versus the log of the inhibitor concentration using the GraphPad Prism 5.0 software.

[1] = Table A4, cells given with + symbol

| Compound | pIC50 (Table A3) | also measured |
| --- | --- | --- |
| Cc1ccc(C(O)(C(N)=O)C(F)(F)F)cc1-c1cnc(N)c(C#CC2(O)CCN(C)C2=O)n1 (centres unmarked) [Example 65, 2-(3-(5-amino-6-((3-hydroxy-1-methyl-2-oxopyrrolidin-3-yl)ethynyl)pyrazin-2-yl)-4-methylphenyl)-3,3,3-trifluoro-2-] | – | pIC50 (Table A2): > 7.00 |
| Cc1ccc(-c2nc(-c3cc(C(O)(C(N)=O)C(F)(F)F)ccc3C)cnc2N)cn1 (centres unmarked) [Example 82, 2-(3-(5-amino-6-(6-methylpyridin-3-yl)pyrazin-2-yl)-4-methylphenyl)-3,3,3-trifluoro-2-hydroxypropanamide bistrifluoroacetate] | > 6.30 | – |
| Cc1ccc(C(O)(C(N)=O)C(F)(F)F)cc1-c1cnc(N)c(-c2ccc(C(F)(F)F)nc2)n1 (centres unmarked) [Example 83, 2-(3-(5-amino-6-(6-(trifluoromethyl)pyridin-3-yl)pyrazin-2-yl)-4-methylphenyl)-3,3,3-trifluoro-2-hydroxypropanamide bistrifluoroacetate] | > 6.30 | – |
| Cc1ccc(C(O)(C(N)=O)C(F)(F)F)cc1-c1cnc(N)c(-c2cnc(C3CC3)s2)n1 (centres unmarked) [Example 84, 2-(3-(5-amino-6-(2-cyclopropylthiazol-5-yl)pyrazin-2-yl)-4-methylphenyl)-3,3,3-trifluoro-2-hydroxypropanamide trifluoroacetate] | > 6.30 | – |
| Cc1ccc(C(O)(C(N)=O)C(F)(F)F)cc1-c1cnc(N)c(-c2ccnc(CO)c2)n1 (centres unmarked) [Example 85, 2-(3-(5-amino-6-(2-(hydroxymethyl)pyridin-4-yl)pyrazin-2-yl)-4-methylphenyl)-3,3,3-trifluoro-2-hydroxypropanamide bistrifluoroacetate] | > 6.30 | – |
| Cc1ccc(C(O)(C(N)=O)C(F)(F)F)cc1-c1cnc(N)c(-c2ccc(CC#N)cc2)n1 (centres unmarked) [Example 87, 2-(3-(5-amino-6-(4-(cyanomethyl)phenyl)pyrazin-2-yl)-4-methylphenyl)-3,3,3-trifluoro-2-hydroxypropanamide trifluoroacetate] | > 6.30 | – |
| Cc1ccc(C(O)(C(N)=O)C(F)(F)F)cc1-c1cnc(N)c(-c2ccc(CO)cc2)n1 (centres unmarked) [Example 88, 2-(3-(5-amino-6-(4-(hydroxymethyl)phenyl)pyrazin-2-yl)-4-methylphenyl)-3,3,3-trifluoro-2-hydroxypropanamide trifluoroacetate] | > 6.30 | – |
| CNC(=O)c1ccc(-c2nc(-c3cc(C(O)(C(N)=O)C(F)(F)F)ccc3C)cnc2N)cc1 (centres unmarked) [Example 89, 4-(3-amino-6-(5-(3-amino-1,1,1-trifluoro-2-hydroxy-3-oxopropan-2-yl)-2-methylphenyl)pyrazin-2-yl)-N-methylbenzamide trifluoroacetate] | > 6.30 | – |
| Cc1ccc(C(O)(C(N)=O)C(F)(F)F)cc1-c1cnc(N)c(-c2ccc(B(O)O)cc2)n1 (centres unmarked) [Example 97, (4-(3-Amino-6-(5-(3-amino-1,1,1-trifluoro-2-hydroxy-3-oxopropan-2-yl)-2-methylphenyl)pyrazin-2-yl)phenyl)boronic acid] | > 6.30 | – |
| Cc1ccc(C(O)(C(N)=O)C(F)F)cc1-c1cnc(N)c(-c2ccnn2C)n1 (centres unmarked) [Example 98, 2-(3-(5-Amino-6-(1-methyl-1H-pyrazol-5-yl)pyrazin-2-yl)-4-methylphenyl)-3,3-difluoro-2-hydroxypropanamide] | > 7.00 | – |
| CC(=O)NCC(O)(c1ccc(C)c(-c2cnc(N)c(-c3cnn(CC(F)(F)F)c3)n2)c1)C(F)(F)F (centres unmarked) [Example 104, N-(2-(3-(5-amino-6-(1-(2,2,2-trifluoroethyl)-1H-pyrazol-4-yl)pyrazin-2-yl)-4-methylphenyl)-3,3,3-trifluoro-2-hydroxypropyl)acetamide trifluoroacetate] | > 7.00 | – |
| Cc1ccc(C(O)(C(N)=O)C(F)(F)F)cc1-c1cnc(N)c(C(=O)Nc2ccnn2C)n1 (centres unmarked) [Example 106, 3-amino-6-(5-(3-amino-1,1,1-trifluoro-2-hydroxy-3-oxopropan-2-yl)-2-methylphenyl)-N-(1-methyl-1H-pyrazol-5-yl)pyrazine-2-carboxamide trifluoroacetate] | > 7.00 | – |
| CC(=O)N1CCN(c2nc(-c3cc(C(O)(C(N)=O)C(F)(F)F)ccc3C)cnc2N)CC1 (centres unmarked) [Example 114, 2-(3-(6-(4-acetylpiperazin-1-yl)-5-aminopyrazin-2-yl)-4-methylphenyl)-3,3,3-trifluoro-2-hydroxypropanamide trifluoroacetate] | – | pIC50 [1]: > 7.00 |
| Cc1ccc([C@@](O)(C(N)=O)C(F)(F)F)cc1-c1cnc(N)c(N2CCN(C(=O)C3CC3)CC2)n1 [Example 115, (R)-2-(3-(5-amino-6-(4-(cyclopropanecarbonyl)piperazin-1-yl)pyrazin-2-yl)-4-methylphenyl)-3,3,3-trifluoro-2-hydroxypropanamide trifluoroacetate] | – | pIC50 [1]: > 7.00 |
| Cc1ccc(C(O)(C(N)=O)C(F)(F)F)cc1-c1cnc(N)c(N2CCN(c3ccccn3)CC2)n1 (centres unmarked) [Example 117, 2-(3-(5-amino-6-(4-(pyridin-2-yl)piperazin-1-yl)pyrazin-2-yl)-4-methylphenyl)-3,3,3-trifluoro-2-hydroxypropanamide trifluoroacetate] | – | IC50: < 100 nM |
| Cc1ccc(C(O)(C(N)=O)C(F)(F)F)cc1-c1cnc(N)c(N2CCN(c3cncs3)CC2)n1 (centres unmarked) [Example 120, 2-(3-(5-amino-6-(4-(thiazol-5-yl)piperazin-1-yl)pyrazin-2-yl)-4-methylphenyl)-3,3,3-trifluoro-2-hydroxypropanamide trifluoroacetate] | – | pIC50 [1]: > 7.00 |
| Cc1ccc(C(O)(C(N)=O)C(F)(F)F)cc1-c1cnc(N)c(N2CCN(c3ccccc3C#N)CC2)n1 (centres unmarked) [Example 122, 2-(3-(5-amino-6-(4-(2-cyanophenyl)piperazin-1-yl)pyrazin-2-yl)-4-methylphenyl)-3,3,3-trifluoro-2-hydroxypropanamide trifluoroacetate] | – | pIC50 [1]: > 7.00 |
| Cc1ccc(C(O)(C(N)=O)C(F)(F)F)cc1-c1cnc(N)c(N2CCN(c3ccc(C#N)cc3)CC2)n1 (centres unmarked) [Example 123, 2-(3-(5-amino-6-(4-(4-cyanophenyl)piperazin-1-yl)pyrazin-2-yl)-4-methylphenyl)-3,3,3-trifluoro-2-hydroxypropanamide trifluoroacetate] | – | pIC50 (Table A4): > 6.30 |
| Cc1ccc(C(O)(C(N)=O)C(F)(F)F)cc1-c1cnc(N)c(N2CCN(CCC#N)CC2)n1 (centres unmarked) [Example 125, 2-(3-(5-amino-6-(4-(2-cyanoethyl)piperazin-1-yl)pyrazin-2-yl)-4-methylphenyl)-3,3,3-trifluoro-2-hydroxypropanamide trifluoroacetate] | – | IC50: < 500 nM |

More lines, main results first:

| pIC50 (Table A3) | Compound | also measured |
| --- | --- | --- |
| > 7.00 | Cc1ccc(C(O)(C(N)=O)C(F)(F)F)cc1-c1cnc(N)c(-c2ccnn2C)n1 (centres unmarked) [Example 69, 2-(3-(5-Amino-6-(1-methyl-1H-pyrazol-5-yl)pyrazin-2-yl)-4-methylphenyl)-3,3,3-trifluoro-2-hydroxypropanamide trifluoroacetate] | – |
| > 7.00 | Cc1ccc(C(O)(C(N)=O)C(F)(F)F)cc1-c1cnc(N)c(-n2cccn2)n1 (centres unmarked) [Example 93, 2-(3-(5-Amino-6-(1H-pyrazol-1-yl)pyrazin-2-yl)-4-methylphenyl)-3,3,3-trifluoro-2-hydroxypropanamide] | – |
| > 7.00 | CNC(=O)C(O)(c1ccc(C)c(-c2cnc(N)c(-n3cncn3)n2)c1)C(F)(F)F (centres unmarked) [Example 94, 2-(3-(5-Amino-6-(1H-1,2,4-triazol-1-yl)pyrazin-2-yl)-4-methylphenyl)-3,3,3-trifluoro-2-hydroxy-N-methylpropanamide trifluoroacetate] | – |
| > 7.00 | Cc1ncc(-c2nc(-c3cc(C(O)(C(N)=O)C(F)F)ccc3C)cnc2N)o1 (centres unmarked) [Example 100, 2-(3-(5-amino-6-(2-methyloxazol-5-yl)pyrazin-2-yl)-4-methylphenyl)-3,3-difluoro-2-hydroxypropanamide] | – |
| > 7.00 | Cc1ccc(C(O)(C(N)=O)C(F)F)cc1-c1cnc(N)c(-c2cnn(C)n2)n1 (centres unmarked) [Example 101, 2-(3-(5-amino-6-(2-methyl-2H-1,2,3-triazol-4-yl)pyrazin-2-yl)-4-methylphenyl)-3,3-difluoro-2-hydroxypropanamide] | – |
| > 7.00 | Cc1ccc(C(O)(CNC=O)C(F)(F)F)cc1-c1cnc(N)c(-c2cnc(C3CC3)s2)n1 (centres unmarked) [Example 102, N-(2-(3-(5-amino-6-(2-cyclopropylthiazol-5-yl)pyrazin-2-yl)-4-methylphenyl)-3,3,3-trifluoro-2-hydroxypropyl)formamide trifluoroacetate] | – |
| > 7.00 | CC(=O)NCC(O)(c1ccc(C)c(-c2cnc(N)c(-c3cn[nH]c3)n2)c1)C(F)(F)F (centres unmarked) [Example 105, N-(2-(3-(5-amino-6-(1H-pyrazol-4-yl)pyrazin-2-yl)-4-methylphenyl)-3,3,3-trifluoro-2-hydroxypropyl)acetamide trifluoroacetate] | – |

— patent US11046658B2, “Aminopyrazine derivatives as PI3K-γ inhibitors” (Incyte Corporation, priority 2018, dated 2021)
